Measurements as given in patent US10197567B2, “Azoline compound and azole compound library and method for producing same” (The University of Tokyo, priority 2011, dated 2019).
Square brackets hold non-standard residues; d marks the D form. Ends that are not written are not given here. * marks the point of attachment. Dap = NC[C@H](N)C(=O)O; For = O=C*

System: PatD
Assay: PatD enzyme reaction: introduction of azoline rings into substrate peptides, mass change read by MALDI-TOF-MS
Assay type: biochemical, Prochloron didemni
Details: for Dehydrated molecules: modification with PatD of synthesized substrates (Table 11-2)
Experimental: After the DNA prepared in 3-2 was transcribed and translated in a cell-free protein expression system of 2.5 μl scale in accordance with the method of Kawakami, et al. (Kawakami et al., Chemistry & Biology 15, 32-42 (2008)) and the solution conditions were adjusted by adding 40 mM Tris-HCl (pH 8.0), 8 mM DTT, 4 mM MgCl2, and 0.8 mM ATP (each, final concentration), recombinant PatD was added.
The reaction was conducted under two conditions as described below.
The mass of the peptide was measured using MALDI-TOF-MS by using sinapinic acid as a matrix and whether a mass change occurred or not by the addition of PatD was checked. The number of azoline rings introduced can be found from the mass change.

| Substance | Dehydrated molecules | also measured |
| --- | --- | --- |
| fMLAELSEEALGDA-GGGGG-VXAX (X=PhSer)-A: PatD substrate with shortened leader, GGGGG and PhSer in the cassette (For-MLAELSEEALGDAGGGGGV[PhSer]A[PhSer]A) | 1 | – |
| Ac—LAELSEEALGDA-GGGGG-VXAXIXFX (X=Dap)-A: synthetic peptide significantly different from a natural substrate (FIG. 17) (Ac-LAELSEEALGDAGGGGGV[Dap]A[Dap]I[Dap]F[Dap]A) | 4 | – |
| PatEC1wt-GS: precursor peptide; cassette VTACITFC, recognition sequence 2 AYDGVGSGSGS (GLEASVTACITFCAYDGVGSGSGS; An example of Recognition Sequence 1 based on Prochloron didemni.; Amino acid sequence of cassette region of wild type PatE; An example of Recognition Sequence 2 based on Prochloron didemni.) | – | number of heterocycles in C-terminal short peptide (treated with PatD and Glu-C, leader sequence cleaved): four |
| C1wt: PatE precursor peptide, leader-GLEAS-cassette-AYDGVEPS; cassette VTACITFC, same as wild type PatE (GLEASVTACITFCAYDGVEPS; An example of Recognition Sequence 1 based on Prochloron didemni.; Amino acid sequence of cassette region of wild type PatE; An example of Recognition Sequence 2 based on Prochloron didemni.) | – | number of azoline rings introduced by PatD (modification with PatD, change in molecular weight by MALDI-TOF-MS): four |
| fMLAELSEEALGDA-GGGGG-VXAX (X=Dap)-A: PatD substrate with shortened leader, GGGGG and Dap in the cassette (For-MLAELSEEALGDAGGGGGV[Dap]A[Dap]A) | 1 | – |
| fMNKKNILPQQGQPVIRLTAGQLSSQLAELSEEALGDA-GLEAS-LCGCTSYCYTVS-AYDGV: PatD substrate: leader, recognition sequence 1, cassette, recognition sequence 2 (For-MNKKNILPQQGQPVIRLTAGQLSSQLAELSEEALGDAGLEASLCGCTSYCYTVSAYDGV; cysteine pairing not given here) | 2 | – |
| fMNKKNILPQQGQPVIRLTAGQLSSQLAELSEEALGDA-GLEAS-VXAX (X=Dap)-AYDGVEPS: PatD substrate with Dap in the cassette (For-MNKKNILPQQGQPVIRLTAGQLSSQLAELSEEALGDAGLEASV[Dap]A[Dap]AYDGVEPS) | 2 | – |
